Measured values as given in a flash point compilation (Sun et al. 2020).

flash point [°C] | SMILES
43.00 | CC1=C[C@H]2C(=O)O[C@H]3C[C@@H](C/C=C(\C)C[C@@H](C)/C=C/C=C4\CO[C@H]([C@@H]1O)[C@@]42O)O[C@@]1(CC[C@H](C)[C@@H](C)O1)C3
-1.00 | CC(C)=CCl [1-chloro-2-methylprop-1-ene]
73.00 | C[Si]1(C)O[Si](C)(C)O[Si](C)(C)O[Si](C)(C)O[Si](C)(C)O1
100.00 | CCCCCCCCCCCCCC [tetradecane]
52.00 | CCCCC(C=O)CC (stereo unspecified) [2-ethylhexanal]
270.00 | c1ccc2sc(SSc3nc4ccccc4s3)nc2c1 [2-(1,3-benzothiazol-2-yldisulfanyl)-1,3-benzothiazole]
178.00 | CCCCCCCCC/C=C/CC1CC(=O)OC1=O (stereo unspecified) [3-[(E)-dodec-2-enyl]oxolane-2,5-dione]
2.00 | CCCCCCCCCCCCCCCCCC(=O)O.O.[Cl][Cr][Cl].[Cl][Cr][Cl] [dichlorochromium;octadecanoic acid;hydrate]
100.00 | C=CCCCCCCCCCC [dodec-1-ene]
35.00 | C=CC[Si](Cl)(Cl)Cl [trichloro(prop-2-enyl)silane]
64.00 | CC1(C)C2CC[C@@]1(C)C(=O)C2 [(1R)-1,7,7-trimethylbicyclo[2.2.1]heptan-2-one]
91.00 | CCCCCCOCCO [2-hexoxyethanol]
54.00 | CC(O)CBr (stereo unspecified) [1-bromopropan-2-ol]
-32.00 | C=CCC(C)C [4-methylpent-1-ene]
52.00 | CC(N)CCN (stereo unspecified) [butane-1,3-diamine]
86.00 | COC(C)COC(C)COC(C)=O (stereo unspecified) [2-(2-methoxypropoxy)propyl acetate]
252.00 | Oc1cccc2c(O)cccc12 [naphthalene-1,5-diol]
66.00 | CC1(C)[C@@H]2CC[C@]1(C)[C@H](O)C2 [(1S,2R,4R)-1,7,7-trimethylbicyclo[2.2.1]heptan-2-ol]
53.00 | CCCCOC(=O)CC(C)C [butyl 3-methylbutanoate]
-4.00 | CCOC(C)=O [ethyl acetate]
91.00 | C/C=C/c1ccc(OC)cc1 [1-methoxy-4-[(E)-prop-1-enyl]benzene]
190.00 | NNC(=O)c1ccncc1 [pyridine-4-carbohydrazide]
54.00 | CCC(CC)COC(C)=O [2-ethylbutyl acetate]
88.00 | C1CNCCN1 [piperazine]
153.00 | COC(=O)c1ccc(C(=O)OC)cc1 [dimethyl benzene-1,4-dicarboxylate]
14.00 | CCCC(=O)OC [methyl butanoate]
188.00 | NC(=O)OCCO [2-hydroxyethyl carbamate]
57.00 | CCc1ccccc1CC [1,2-diethylbenzene]

flash point [°C] | SMILES
91.00 | CC(=O)OCc1ccccc1 [benzyl acetate]
93.00 | C=CN1CCCC1=O [1-ethenylpyrrolidin-2-one]
78.00 | C=CC(=O)OCCOCCOC(=O)C=C [2-(2-prop-2-enoyloxyethoxy)ethyl prop-2-enoate]
60.00 | C=O [formaldehyde]
107.00 | CCCCCCCCCCCC(C)=O [tridecan-2-one]
99.00 | C=CCc1ccc(OC)c(OC)c1 [1,2-dimethoxy-4-prop-2-enylbenzene]
73.00 | CCCCCC(=O)OC [methyl hexanoate]
163.00 | CCCCCCOC(=O)CCCCC(=O)OCCCCCC [dihexyl hexanedioate]
108.00 | CC(C)=CCC/C(C)=C/CO [(2E)-3,7-dimethylocta-2,6-dien-1-ol]
41.00 | CCCCC(C)O (stereo unspecified) [hexan-2-ol]
82.00 | C=CC(=O)OCCCCCCCC [octyl prop-2-enoate]
74.00 | C=Cc1ccc(C)nc1 [5-ethenyl-2-methylpyridine]
98.00 | CCCCCCCCCCS [decane-1-thiol]
-10.00 | COC(C)=O [methyl acetate]
152.00 | O=C1OC(=O)c2ccccc21 [2-benzofuran-1,3-dione]
297.00 | CC(C)(C)c1cc(CCC(=O)OCC(COC(=O)CCc2cc(C(C)(C)C)c(O)c(C(C)(C)C)c2)(COC(=O)CCc2cc(C(C)(C)C)c(O)c(C(C)(C)C)c2)COC(=O)CCc2cc(C(C)(C)C)c(O)c(C(C)(C)C)c2)cc(C(C)(C)C)c1O
45.00 | CC(=O)OC(C)CC(C)C (stereo unspecified) [4-methylpentan-2-yl acetate]
-83.00 | CC(C)C [2-methylpropane]
82.00 | CC(C)CCCCCO [6-methylheptan-1-ol]
4.00 | [Ni+2].c1cc[cH-]c1.c1cc[cH-]c1 [cyclopenta-1,3-diene;nickel(2+)]
-51.00 | C=CCCC [pent-1-ene]
44.00 | CC(O)COC(C)(C)C (stereo unspecified) [1-[(2-methylpropan-2-yl)oxy]propan-2-ol]
187.00 | OC[C@H]1O[C@@H](OC/C=C/c2ccccc2)[C@H](O)[C@@H](O)[C@@H]1O
71.00 | CC1CCCCN1CCCOC(=O)c1ccc(Cl)c(Cl)c1 (stereo unspecified) [3-(2-methylpiperidin-1-yl)propyl 3,4-dichlorobenzoate]
135.00 | NCCNCCNCCN [N'-[2-(2-aminoethylamino)ethyl]ethane-1,2-diamine]
37.00 | CC(C)COC(=O)C(C)C [2-methylpropyl 2-methylpropanoate]
36.00 | Cc1cccnc1 [3-methylpyridine]

SMILES | flash point [°C]
CCCCCCCCCOC(=O)c1ccccc1C(=O)OCCCCCCCCC [dinonyl benzene-1,2-dicarboxylate] | 216.00
CCSC(C)CC1CC(=O)C(/C(CC)=N/OC/C=C/Cl)=C(O)C1 (stereo unspecified) | 72.00
CC(C)=O [propan-2-one] | -18.00
CCCCCCCCCc1ccc(O)cc1 [4-nonylphenol] | 113.00
C=CC(=C)Cl [2-chlorobuta-1,3-diene] | -20.00
C/C=C/c1ccccc1 [[(E)-prop-1-enyl]benzene] | 52.00
CC(C)(C)O [2-methylpropan-2-ol] | 11.00
Cc1c(COC(=O)C2C(C=C(Cl)C(F)(F)F)C2(C)C)cccc1-c1ccccc1 (stereo unspecified) | 165.00
N#CCc1ccccc1 [2-phenylacetonitrile] | 102.00
COCCOCCO [2-(2-methoxyethoxy)ethanol] | 93.00
CCCSC(=O)Cl [S-propyl chloromethanethioate] | 62.00
C1=CCCC=CCCC=CCC1 [cyclododeca-1,5,9-triene] | 71.00
CCCC=NO [N-butylidenehydroxylamine] | 58.00
FC(F)(F)c1ccc(Cl)cc1 [1-chloro-4-(trifluoromethyl)benzene] | 47.00
O=P(N1CC1)(N1CC1)N1CC1 [1-[bis(aziridin-1-yl)phosphoryl]aziridine] | 163.00
Cc1ccc(N=C=O)cc1N=C=O [2,4-diisocyanato-1-methylbenzene] | 132.00
Nc1ccccc1 [aniline] | 70.00
Cc1ccccc1[N+](=O)[O-] [1-methyl-2-nitrobenzene] | 106.00
CCCCC(CC)Cc1c(C(=O)OOOC(=O)c2cc(O)c(O)c(O)c2)cc(O)c(O)c1O (stereo unspecified) | 232.00
Cc1ccc(C)cc1 [1,4-xylene] | 27.00
CC(=O)[O][Hg][c]1ccccc1 [acetyloxy(phenyl)mercury] | 60.00

SMILES | flash point [°C]
NC(=Nc1ccccc1)Nc1ccccc1 [1,2-diphenylguanidine] | 198.00
CC(Cl)CO (stereo unspecified) [2-chloropropan-1-ol] | 52.00
CCC(C)Nc1c([N+](=O)[O-])cc(C(C)(C)C)cc1[N+](=O)[O-] (stereo unspecified) [N-butan-2-yl-4-tert-butyl-2,6-dinitroaniline] | 36.00
COc1cc(-c2ccc(N)c(OC)c2)ccc1N [4-(4-amino-3-methoxyphenyl)-2-methoxyaniline] | 206.00
Cc1ccccc1OP(=O)(Oc1ccccc1)Oc1ccccc1 [(2-methylphenyl) diphenyl phosphate] | 232.00
CCC[CH2][Sn]([Cl])([Cl])[CH2]CCC [dibutyl(dichloro)stannane] | 168.00
CCC(C)=O [butan-2-one] | -3.00
CCOc1cc(C=O)ccc1O [3-ethoxy-4-hydroxybenzaldehyde] | 145.00
O=C1CCCO1 [oxolan-2-one] | 98.00
COP(=S)(OC)Oc1ccc(C#N)cc1 [4-dimethoxyphosphinothioyloxybenzonitrile] | 104.00
c1ccc(C2CO2)cc1 (stereo unspecified) [2-phenyloxirane] | 79.00
COc1ccc(O)c(C(C)(C)C)c1 [2-tert-butyl-4-methoxyphenol] | 156.00
S=C1NCCN1 [imidazolidine-2-thione] | 252.00
CCCCOC(=O)c1ccccc1C(=O)OCc1ccccc1 [2-O-benzyl 1-O-butyl benzene-1,2-dicarboxylate] | 199.00
C/C=C/C=O [(E)-but-2-enal] | 13.00
CC(C)(C)OOC(C)(C)CCC(C)(C)OOC(C)(C)C [2,5-bis(tert-butylperoxy)-2,5-dimethylhexane] | 85.00
CC(O)C#N (stereo unspecified) [2-hydroxypropanenitrile] | 77.00
Cc1cccc(N)c1C [2,3-dimethylaniline] | 97.00
CC(=O)CCC(C)=O [hexane-2,5-dione] | 79.00
CCC(=O)OC(=O)CC [propanoyl propanoate] | 63.00
